The target of series [1] is T1, Salicylate hydroxylase (NahG) (Pseudomonas putida, UniProt P23262).
T1 sequence (P23262 1-434): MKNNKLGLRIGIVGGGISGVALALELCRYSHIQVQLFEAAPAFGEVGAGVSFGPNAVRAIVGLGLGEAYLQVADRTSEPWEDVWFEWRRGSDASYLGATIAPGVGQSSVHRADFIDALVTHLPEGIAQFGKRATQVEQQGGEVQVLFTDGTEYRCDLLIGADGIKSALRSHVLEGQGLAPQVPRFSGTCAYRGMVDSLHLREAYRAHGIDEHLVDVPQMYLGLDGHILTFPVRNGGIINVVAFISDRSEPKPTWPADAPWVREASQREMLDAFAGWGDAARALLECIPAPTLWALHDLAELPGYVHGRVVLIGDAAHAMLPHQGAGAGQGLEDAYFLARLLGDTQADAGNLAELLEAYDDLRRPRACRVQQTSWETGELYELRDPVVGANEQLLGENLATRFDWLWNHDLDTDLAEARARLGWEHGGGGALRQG
As to the kind of experiment: fluorometric titration. The class given is binding.

Series [2] addresses T1, Salicylate hydroxylase (NahG). Briefly: fluorometric titration.
Substrate in series [3]: NC(=O)C1=CN([C@@H]2O[C@H](COP(=O)(O)OP(=O)(O)OC[C@H]3O[C@@H](n4cnc5c(N)ncnc54)[C@H](O)[C@@H]3O)[C@@H](O)[C@H]2O)C=CC1
As to the kind of experiment: initial rate of NADH consumption, spectrophotometric. The class given is biochemical, Pseudomonas putida. As to conditions: pH 8.5, I = 0.21 M (NaCl), 25 °C, salicylate, FAD as cofactor.

Read-outs that look alike come from different tables or passages of the source.

For `O=C(O)c1ccccc1O` [salicylate], in series [1], the affinity, expressed as Kd, was 0.28 ± 0.03 µM.
Consider `Cc1cc2nc3c(=O)[nH]c(=O)nc-3n(C[C@H](O)[C@H](O)[C@H](O)COP(=O)(O)OP(=O)(O)OC[C@H]3O[C@@H](n4cnc5c(N)ncnc54)[C@H](O)[C@@H]3O)c2cc1C` [Flavin adenine dinucleotide], for which, in series [2], the affinity, expressed as Kd, was 0.036 ± 0.008 µM.
Still for that read-out and setting: the value for `Cc1cc2nc3c(=O)[nH]c(=O)nc-3n(C[C@H](O)[C@H](O)[C@H](O)COP(=O)(O)O)c2cc1C` [riboflavin 5′-monophosphate] was 2.2 ± 0.2 µM.

B1: Salicylate hydroxylase (NahG) (Pseudomonas putida) (protein)
chain: T1 sequence (P23262 1-434)
For B1, in series [3], the Km (as a rule, the substrate concentration at which the rate is half of its maximum) was found to be 27 µM.

(Values after paper PMC8824312 (Bioorganic chemistry, 2021).)
